Source: the NIST ThermoML archive (doi:10.1016/j.fluid.2012.11.011)

Assay: osmotic coefficient (dimensionless); mn = molality of the nth substance listed, in mol/kg
Settings: 298.15 K, Liquid, isopiestic method

CC1(C)S[C@@H]2[C@H](NC(=O)Cc3ccccc3)C(=O)N2[C@H]1C(=O)[O-].[Na+] + O
Settings | osmotic coefficient
2.442 kPa, m1 = 9.082 | 0.796
2.452 kPa, m1 = 9.136 | 0.779
2.606 kPa, m1 = 7.249 | 0.749
2.623 kPa, m1 = 7.416 | 0.708
2.757 kPa, m1 = 5.709 | 0.678
2.901 kPa, m1 = 3.775 | 0.652
2.919 kPa, m1 = 3.9 | 0.585
2.93 kPa, m1 = 3.429 | 0.636
2.93 kPa, m1 = 3.558 | 0.612
2.958 kPa, m1 = 3.303 | 0.582
2.986 kPa, m1 = 2.627 | 0.63
2.989 kPa, m1 = 2.675 | 0.61
2.989 kPa, m1 = 2.704 | 0.603
3.002 kPa, m1 = 2.483 | 0.608
3.006 kPa, m1 = 2.489 | 0.592
3.007 kPa, m1 = 2.326 | 0.629
3.007 kPa, m1 = 2.366 | 0.62
3.009 kPa, m1 = 2.334 | 0.618
3.033 kPa, m1 = 2.001 | 0.612
3.049 kPa, m1 = 1.757 | 0.616
3.05 kPa, m1 = 1.757 | 0.61
3.068 kPa, m1 = 1.28 | 0.705
3.089 kPa, m1 = 1.073 | 0.672
3.091 kPa, m1 = 1.085 | 0.647
3.123 kPa, m1 = 0.457 | 0.903
3.126 kPa, m1 = 0.4044 | 0.966
3.17 kPa, m1 = 0 | 1

CC1(C)S[C@@H]2[C@H](NC(=O)[C@H](N)c3ccccc3)C(=O)N2[C@H]1C(=O)[O-].[Na+] [Ampicillin Sodium] + O
Settings | osmotic coefficient
2.467 kPa, m1 = 7.468 | 0.93
2.565 kPa, m1 = 6.773 | 0.867
2.654 kPa, m1 = 5.991 | 0.822
2.747 kPa, m1 = 5.699 | 0.696
2.901 kPa, m1 = 4.439 | 0.553
2.908 kPa, m1 = 4.261 | 0.562
2.926 kPa, m1 = 4.103 | 0.54
2.942 kPa, m1 = 3.839 | 0.538
2.982 kPa, m1 = 3.301 | 0.513
3.005 kPa, m1 = 2.932 | 0.504
3.006 kPa, m1 = 2.958 | 0.499
3.008 kPa, m1 = 2.867 | 0.506
3.011 kPa, m1 = 2.855 | 0.498
3.031 kPa, m1 = 2.397 | 0.519
3.032 kPa, m1 = 2.398 | 0.514
3.052 kPa, m1 = 1.912 | 0.548
3.066 kPa, m1 = 1.699 | 0.546
3.076 kPa, m1 = 1.476 | 0.563
3.079 kPa, m1 = 1.392 | 0.578
3.081 kPa, m1 = 1.369 | 0.575
3.098 kPa, m1 = 1.134 | 0.564
3.099 kPa, m1 = 1.093 | 0.576
3.102 kPa, m1 = 0.9835 | 0.612
3.103 kPa, m1 = 0.9725 | 0.612
3.103 kPa, m1 = 1.029 | 0.578
3.104 kPa, m1 = 1.015 | 0.576
3.111 kPa, m1 = 0.8951 | 0.586
3.113 kPa, m1 = 0.8284 | 0.612
3.113 kPa, m1 = 0.8511 | 0.591
3.118 kPa, m1 = 0.7369 | 0.617
3.119 kPa, m1 = 0.6767 | 0.67
3.119 kPa, m1 = 0.6922 | 0.651
3.119 kPa, m1 = 0.7007 | 0.644
3.119 kPa, m1 = 0.7507 | 0.597
3.13 kPa, m1 = 0.5215 | 0.672
3.131 kPa, m1 = 0.525 | 0.654
3.131 kPa, m1 = 0.5325 | 0.648
3.132 kPa, m1 = 0.47 | 0.72
3.133 kPa, m1 = 0.4627 | 0.704
3.139 kPa, m1 = 0.3871 | 0.705
3.144 kPa, m1 = 0.3032 | 0.75
3.145 kPa, m1 = 0.3044 | 0.714
3.155 kPa, m1 = 0.1575 | 0.856
3.162 kPa, m1 = 0.0754 | 0.885
3.17 kPa, m1 = 0 | 1
